Source: article PMC8596838, “Xylose‐Configured Cyclophellitols as Selective Inhibitors for Glucocerebrosidase” (Chembiochem, 2021)

Experiments:
[1] = target: T1, GBA (Homo sapiens, UniProt P04062); assay: Competitive ABPP (cABPP) with ABP 10 in HEK293T cell lysates, GBA; assay type: biochemical; settings: cell lysate, 30 min incubation
T1 construct: HEK293T cells that contain endogenous GBA; endogenous in cells; host or cells: HEK293T (ATCC CRL-3216) overexpressing GBA2 and GBA3
T1 sequence (P04062 40-536): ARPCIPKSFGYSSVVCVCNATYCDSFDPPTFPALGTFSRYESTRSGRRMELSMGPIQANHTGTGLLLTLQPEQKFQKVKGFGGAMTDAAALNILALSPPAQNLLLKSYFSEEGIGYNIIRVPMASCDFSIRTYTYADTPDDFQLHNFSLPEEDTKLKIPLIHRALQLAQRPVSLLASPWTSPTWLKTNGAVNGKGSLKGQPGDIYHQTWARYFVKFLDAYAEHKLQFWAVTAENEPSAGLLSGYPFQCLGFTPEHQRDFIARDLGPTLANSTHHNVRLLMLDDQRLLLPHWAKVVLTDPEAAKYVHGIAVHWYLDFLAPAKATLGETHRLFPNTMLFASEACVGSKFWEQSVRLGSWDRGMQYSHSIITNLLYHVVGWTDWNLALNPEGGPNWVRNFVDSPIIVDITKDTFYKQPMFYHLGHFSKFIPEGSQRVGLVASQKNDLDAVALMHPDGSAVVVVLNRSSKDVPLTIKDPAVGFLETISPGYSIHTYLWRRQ
Procedure: (§1) In the first instance, the inhibitory potency of 1 and 2 for GBA, GBA2, and GBA3 was assessed by competitive activity‐based protein profiling (cABPP). For this, we first generated HEK293T cells that contain endogenous GBA and overexpress human GBA2 and GBA3.
(§2) Figure 3 Selectivity of compounds visualized by competitive ABPP labeling of β‐D‐glucosidase. Lysates of HEK293T cells expressing human GBA, GBA2 and GBA3 were incubated with compounds 1–5 at indicated concentrations for 30 min, following by cABPP with ABP 10.
(§3) ABP labeling procedure: Glycosidases were labeled with excess fluorescent ABPs at optimum conditions. ABP labeling was performed at 37 °C for 30 min for all materials (if not otherwise stated), in a total sample volume of 20–40 μL and 0.5–1 % DMSO concentration. GBA was labeled with 200 nM ABP 9 (pH 5.2, 0.1 % (v/v) Triton‐100, 0.2 % (w/v) sodium taurocholate), or labeled together with GBA2 using 200 nM β‐D‐glucose‐configured aziridine ABP 10 at pH 5.8, or labeling together with GBA2 and GBA3 using 200 nM β‐D‐glucose‐configured aziridine ABP 10 at pH 6.0. After ABP incubation, proteins were denatured by boiling the samples with 5× Laemmli buffer (50 % (v/v) 1 M Tris‐HCl, pH 6.8, 50 % (v/v) 100 % glycerol, 10 % (w/v) DTT, 10 % (w/v) SDS, 0.01 % (w/v) bromophenol blue) for 5 min at 98 °C, and separated by electrophoresis on 10 % (w/v) SDS‐PAGE gels running continuously at 90 V. Wet slab‐gels were scanned on fluorescence using the Typhoon FLA 9500 (GE Healthcare) at λEX 473 nm and λEM≥510 nm for green fluorescent ABP 8; and at λEX 635 nm and λEM≥665 nm for ABP 6, 9 and 10. ABP‐emitted fluorescence was quantified using ImageQuant software (GE Healthcare, Chicago, IL, USA) and curve‐fitted using Prism 8.0 (GraphPad Software). After fluorescence scanning, SDS‐PAGE gels were stained for total protein with Coomassie G250 and scanned on a ChemiDoc MP imager (Bio‐Rad, Hercules, CA, USA).[25]

[2] = target: T2, GBA2 (Homo sapiens, UniProt Q9HCG7); assay: Competitive ABPP (cABPP) with ABP 10 in HEK293T cell lysates, GBA2; assay type: biochemical; settings: cell lysate, 30 min incubation
T2 construct: expressed in transfected cells; host or cells: HEK293T (GBA/GBA2 KO background for the fluorogenic assay; endogenous-GBA background with GBA2 and GBA3 overexpressed for ABPP and intact-cell assays)
T2 sequence (Q9HCG7 1-927): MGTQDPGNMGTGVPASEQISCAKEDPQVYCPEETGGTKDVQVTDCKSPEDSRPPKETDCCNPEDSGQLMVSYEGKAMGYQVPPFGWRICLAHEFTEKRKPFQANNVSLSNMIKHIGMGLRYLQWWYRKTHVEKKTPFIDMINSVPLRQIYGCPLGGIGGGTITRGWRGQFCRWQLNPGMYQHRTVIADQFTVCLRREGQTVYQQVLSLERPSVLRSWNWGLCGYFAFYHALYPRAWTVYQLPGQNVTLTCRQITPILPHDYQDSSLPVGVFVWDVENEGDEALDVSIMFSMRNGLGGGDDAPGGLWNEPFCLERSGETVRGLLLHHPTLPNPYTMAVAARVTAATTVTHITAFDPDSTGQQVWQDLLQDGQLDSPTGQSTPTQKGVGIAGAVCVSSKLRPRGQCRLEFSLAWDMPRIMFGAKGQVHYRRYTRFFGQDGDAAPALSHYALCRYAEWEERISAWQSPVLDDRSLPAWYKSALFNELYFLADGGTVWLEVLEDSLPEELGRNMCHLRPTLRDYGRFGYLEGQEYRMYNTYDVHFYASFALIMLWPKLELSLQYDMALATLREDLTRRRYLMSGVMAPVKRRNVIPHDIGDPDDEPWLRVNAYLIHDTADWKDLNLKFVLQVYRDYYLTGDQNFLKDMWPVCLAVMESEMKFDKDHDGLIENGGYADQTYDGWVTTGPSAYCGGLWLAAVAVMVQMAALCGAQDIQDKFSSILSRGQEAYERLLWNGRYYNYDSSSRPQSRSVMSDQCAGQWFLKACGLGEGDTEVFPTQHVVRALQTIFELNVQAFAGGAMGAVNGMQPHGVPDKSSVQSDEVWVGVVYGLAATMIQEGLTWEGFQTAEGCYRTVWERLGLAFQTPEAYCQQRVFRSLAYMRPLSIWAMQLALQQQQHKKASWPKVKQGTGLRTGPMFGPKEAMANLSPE
Procedure: as §1, §2, §3

SMILES | concentration competing ABP 10 labeling of GBA [1] [µM] | concentration competing ABP 10 labeling of GBA2 [2] [µM] | competition of ABP 10 labeling of GBA2 [2] | competition of ABP 10 labeling of GBA [1]
O[C@@H]1[C@@H](O)[C@H](O)C[C@H]2N[C@@H]12 [compound 2, β‐D‐xylo‐Cyclophellitol aziridine] | 1 to 10 | 100 |  | 
O[C@@H]1[C@@H](O)[C@H](O)C[C@H]2O[C@@H]12 [compound 1, xylo‐cyclophellitol] | 10 to 100 |  | but not that of GBA2 or GBA3 | 
OC[C@@H]1[C@@H](O)[C@H](O)[C@@H](O)[C@@H]2O[C@H]12 [compound 3, cyclophellitol] | 0.1 to 1 | 0.1 to 1 |  | 
OC[C@@H]1[C@@H](O)[C@H](O)[C@@H](O)[C@@H]2N[C@H]12 [compound 4, cyclophellitol aziridine, reference compound] | 0.1 to 1 | 0.1 to 1 |  | 
[N-]=[N+]=NCCCCCCCCN1[C@H]2[C@H](O)[C@@H](O)[C@H](O)C[C@H]21 (stereo partly drawn) [compound 5] |  |  |  | greatly enhances inhibitory potency
